Reference: US9453019B2, “Linked purine pterin HPPK inhibitors useful as antibacterial agents” (THE UNITED STATES OF AMERICA, AS REPRESENTED BY THE …, priority 2010, dated 2016)

Tests used:
HPPK = HPPK (Escherichia coli, UniProt P26281); test: Fluorometric titration binding study with HPPK; details: room temperature; 100 mM Tris-HCl, pH 8.3; fluorescence titration, nonlinear least-squares analysis
Description: Binding studies were carried out at room temperature. Protein (HPPK) and ligand stock solutions were made in 100 mM Tris-HCl, pH 8.3, and their concentrations were determined spectrophotometrically using the following extinction coefficients: 21600 M^−1 cm^−1 at 280 nm for HPPK, 7000 M^−1 cm^−1 at 366 nm for the pteridone bisubstrate inhibitors such as compound 13, and 7124 M^−1 cm^−1 at 380 nm for the tetrahydropteridine bisubstrate inhibitors such as 28. A 3-mL dilute inhibitor solution in a fluorometric cuvette was titrated with the protein stock solution. Fluorescence was measured on a Horiba Jobin Yvon FluoroMax-4 fluorometer. The excitation wavelength and slit were 364-380 and 2-3 nm, respectively, and the emission wavelength and slit were 450-482 and 2-5 nm, respectively. […] For these HPPK preparations, a control experiment, in which a 3-mL buffer solution was titrated with the protein solution, was performed. The control data was subtracted from the titration data. The corrected titration data was then analyzed by nonlinear least-squares regression using the software Origin and the equation:
[formula] where Fobs is the observed fluorescence, εf and εb are the fluorescence coefficients of the ligand in the free and protein-bound states, respectively, Lt is the total concentration of the ligand, and Et is the total concentration of HPPK. […]

[1] = Stability of the compounds (stated in words, no method given); assay type: physicochemical; details: qualitative statement; no conditions given

Chain of HPPK (P26281 whole entry): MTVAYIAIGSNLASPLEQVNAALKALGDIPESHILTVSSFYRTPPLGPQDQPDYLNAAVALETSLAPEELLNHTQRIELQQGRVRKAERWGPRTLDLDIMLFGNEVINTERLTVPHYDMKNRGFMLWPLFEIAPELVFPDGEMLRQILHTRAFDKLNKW

| SMILES | Kd (HPPK) | Stability of compound [1] |
| --- | --- | --- |
| CC1(C)Nc2nc(N)[nH]c(=O)c2N=C1C(=O)NCCN1CCC(SC[C@H]2O[C@@H](n3cnc4c(N)ncnc43)C(O)C2O)CC1 (stereo in doubt) [Compound 28, 2-Amino-7,7-dimethyl-4-oxo-3,4,7,8-tetrahydro-pteridine-6-carboxylic acid (2-{4-[5-(6-amino-purin-9-yl)-3,4-dihydroxy-tetrahydro-furan-2-ylmethylsulfanyl]-piperidin-1-yl}-ethyl)-amide] | 330 nM | stable |
| Nc1nc2ncc(CNCCN3CCC(SC[C@H]4O[C@@H](n5cnc6c(N)ncnc65)C(O)C4O)CC3)nc2c(=O)[nH]1 (stereo in doubt) [Compound 13, 2-Amino-6-[(2-{4-[5-(6-amino-purin-9-yl)-3,4-dihydroxy-tetrahydro-furan-2-ylmethylsulfanyl]-piperidin-1-yl}-ethylamino)-methyl]-3H-pteridin-4-one] | 590 nM | stable |
